Measured values from patent EP2332917B1, “Compounds for PIM kinase inhibition and for treating malignancy” (Sygnis Bioscience GmbH & Co. KG, priority 2009, dated 2011).
“Also recorded” adds a separate entry of the source.

Molecular target: T1, PIM-1 kinase (Homo sapiens, UniProt P11309)
T1 construct: purchased Cell Signaling Technology Inc., Boston, USA
Test: In vitro assay for PIM-1 kinase inhibition (PIM-1 Kinase Assay Kit, colorimetric ELISA readout)
Type: biochemical
Settings: for PIM-1 kinase inhibition (result in words): increasing concentrations 0.1 to 100 µM, Fig. 1 (1.5 ng PIM-1 kinase) and Fig. 2 (2.5 ng PIM-1 kinase); for % remaining PIM-1 kinase activity: test compound at final concentration 100 µM, normalized to positive control (no test compound) = 100 % activity, 1.5 ng (A-D series) or 2.5 ng (E series) PIM-1 kinase, 200 µM ATP
Method: • Fig. 1: The compounds 1-chloro-5-([1,4]diazepane-1-sulfonyl)-8-propoxy-isoquinoline (compound A), 1-chloro-5-(piperazin-1-sulfonyl)-8-methoxy-isoquinoline (compound B), […] (compound C), and 1-chloro-5-([1,4]diazepane-1-sulfonyl)-6-methoxy-isoquinoline (compound D) are potent PIM kinase inhibitors. In vitro assays of PIM-1 kinase activity (1.5 ng) in the present of increasing concentrations of the compounds A, B, C or D were performed as described within example 5. An assay without additional test compound served as positive control for the assay (pos) and an assay without PIM-1 kinase served as negative assay (neg). […] Each assay result was normalized in comparison to the positive control which was defined as 100 % activity. […] In vitro assays of PIM-1 kinase activity (2.5 ng) in the present of increasing concentrations of the compound E were performed as described within example 5. An assay without additional test compound served as positive control for the assay (pos) and an assay without PIM-1 kinase served as negative assay (neg). […] Each assay result was normalized in comparison to the positive control which was defined as 100 % activity.
The in vitro assay for PIM-1 kinase inhibition was performed using the PIM-1 Kinase Assay Kit (Cell Signaling Technology Inc., Boston, USA) according to the manufacture's instruction. Briefly, 1.5 or 2.5 ng PIM-1 kinase has been dissolved in 50 µl assay buffer (25 mM Tris-Hcl (pH 7.5), 10 mM MgCl2, 5 mM beta-glycerophosphate, 0.1 mM Na3VO4, 2 mM DTT, 200 µM ATP, and 1.5 µM peptide substrate) and test compound has been added to a final concentration in a range of 0.1 to 100 µM. After 30 minutes incubation at ambient temperature the reaction was stopped by adding 50 µl Stop buffer (50 mM EDTA, pH 8) per reaction. An aliquot of 25 µl per reaction was diluted each by 75 µl water and transferred to a 96-well streptavidin-coated plate. After 60 minutes incubation and three times washing with PBS, 100 µl/well primary antibody (Phospho-Bad (Ser112) antibody, 1:1000 diluted in PBS) was added. After further 2 h incubation and three times washing with PBS, an usual colorimetric ELISA assay was performed using a HRP labeled second antibody according to the manufacture's instructions. A PIM kinase reaction without addition of a test compound served as positive control (pos) and an assay without PIM kinase served as negative control (neg). […] The PIM-1 kinase inhibition of the test compounds (1-chloro-5-([1,4]diazepane-1-sulfonyl)-8-propoxy-isoquinoline (compound A), 1-chloro-5-(piperazin-1-sulfonyl)-8-methoxy-isoquinoline (compound B), 1-methyl-5-([1,4]diazepane-1-sulfonyl)-8-methoxy-isoquinoline (compound C), and 1-chloro-5-([1,4]diazepane-1-sulfonyl)-6-methoxy-isoquinoline (compound D)) was measured in a first series of assays, and the one of the compound 5-([1,4]diazepane-1-sulfonyl)-8-methoxy-isoquinoline (compound E) was measured in a second series of assays. Within each series of assays the measured PIM-1 kinase activity was normalized in comparison to the positive control (pos) which was defined as 100 % activity. […] The table below summarizes the percentage of the remaining PIM-1 kinase activity in the presence of the test compounds in a final concentration of 100 µM.

T1 sequence (P11309 whole entry): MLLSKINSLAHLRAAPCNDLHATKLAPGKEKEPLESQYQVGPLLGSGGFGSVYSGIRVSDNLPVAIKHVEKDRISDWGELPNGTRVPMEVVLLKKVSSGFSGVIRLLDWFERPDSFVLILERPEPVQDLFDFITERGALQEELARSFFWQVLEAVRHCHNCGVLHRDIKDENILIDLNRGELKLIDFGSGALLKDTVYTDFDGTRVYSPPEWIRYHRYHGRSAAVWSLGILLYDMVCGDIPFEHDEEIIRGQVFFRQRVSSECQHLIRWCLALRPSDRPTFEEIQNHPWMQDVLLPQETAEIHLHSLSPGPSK

Compound | % remaining PIM-1 kinase activity [%] | PIM-1 kinase inhibition (result in words)
COc1ccc2c(Cl)nccc2c1S(=O)(=O)N1CCCNCC1 [D, 1-chloro-5-([1,4]diazepane-1-sulfonyl)-6-methoxy-isoquinoline] | 29 | potent PIM-1 kinase inhibitors; also recorded: potent PIM inhibitory effect
CCCOc1ccc(S(=O)(=O)N2CCCNCC2)c2ccnc(Cl)c12 [Compound A, 1-chloro-5-([1,4]diazepane-1-sulfonyl)-8-propoxy-isoquinoline] | 23 | potent PIM-1 kinase inhibitors; also recorded: potent PIM inhibitory effect
COc1ccc(S(=O)(=O)N2CCNCC2)c2ccnc(Cl)c12 [B, 1-chloro-5-(piperazin-1-sulfonyl)-8-methoxy-isoquinoline] | 33 | potent PIM-1 kinase inhibitors; also recorded: potent PIM inhibitory effect

Further lines, with some results ahead:

% remaining PIM-1 kinase activity [%] | Compound | PIM-1 kinase inhibition (result in words)
31 | COc1ccc(S(=O)(=O)N2CCCNCC2)c2ccnc(C)c12 [C, 1-methyl-5-([1,4]diazepane-1-sulfonyl)-8-methoxy-isoquinoline] | potent PIM-1 kinase inhibitors; also recorded: potent PIM inhibitory effect
71 | O=S(=O)(c1cccc2cnccc12)N1CCCNCC1 [F, Fasudil, reference compound] | at the most very weak PIM-1 inhibition
17 | COc1ccc(S(=O)(=O)N2CCCNCC2)c2ccnc(Cl)c12 [G, 1-chloro-8-methoxy-Fasudil, reference compound] | very potent PIM-1 inhibitor
46 | COc1ccc(S(=O)(=O)N2CCCNCC2)c2ccncc12 [E, 5-([1,4]diazepane-1-sulfonyl)-8-methoxy-isoquinoline, reference compound] | at most a moderate PIM-1 kinase inhibition; also recorded: only weak PIM inhibitory effect
